The text below walks through data of PMC8815882, “Screening the pandemic response box identified benzimidazole carbamates, Olorofim and ravuconazole as promising drug candidates for the treatment of eumycetoma” (PLoS Neglected Tropical Diseases, 2022).

The assay relates to M. mycetomatis genome strain MM55. The experiment in a line: CLSI M38-A2 based in vitro susceptibility screening (XTT or resazurin), growth at fixed concentration. Format: cell-based, Madurella mycetomatis. To be noted: Madurella mycetomatis; for Percent fungal survival at 100 µM: read-out: Percentage survival at 100um, 100 uM A (second replicate column).
The mark [1] stands for this setting: mean of replicates, MM55, read-out: Percentage survival at 25um, 25 uM mean.
[2] abbreviates: replicate A, MM55, read-out: Percentage survival at 25um, 25 um A.
[3] abbreviates: replicate B, MM55, read-out: Percentage survival at 25um, 25 uM B.
Where [4] appears, read: replicate C, MM55, read-out: Percentage survival at 25um, 25 uM C.
Setting [5] is: mean of replicates, MM55, read-out: Percentage survival at 100um, 100 uM mean.
Where [6] appears, read: replicate 1, MM55, read-out: Percentage survival at 100um, 100 uM A.
Setting [7] is: replicate 2, MM55, read-out: Percentage survival at 100um, 100 uM A.
Where [8] appears, read: replicate 3, MM55, read-out: Percentage survival at 100um, 100 uM A.
Where [9] appears, read: mean of three replicates, read-out: Percentage survival at 25um, 25 uM mean.
Setting [10] is: replicate A, read-out: Percentage survival at 25um, 25 um A.
Setting [11] is: replicate B, read-out: Percentage survival at 25um, 25 uM B.
Setting [12] is: replicate C, read-out: Percentage survival at 25um, 25 uM C.
Setting [13] is: first replicate column, read-out: Percentage survival at 100um, 100 uM A.
Where [14] appears, read: mean of three replicates, read-out: Percentage survival at 100um, 100 uM mean.
Where [15] appears, read: second replicate column, read-out: Percentage survival at 100um, 100 uM A.
Setting [16] is: third replicate column, read-out: Percentage survival at 100um, 100 uM A.
Where [17] appears, read: mean of three, M. mycetomatis MM55, read-out: Percentage survival at 25um, 25 uM mean.
[18] abbreviates: replicate A, M. mycetomatis MM55, read-out: Percentage survival at 25um, 25 um A.
The mark [19] stands for this setting: replicate B, M. mycetomatis MM55, read-out: Percentage survival at 25um, 25 uM B.
Where [20] appears, read: replicate C, M. mycetomatis MM55, read-out: Percentage survival at 25um, 25 uM C.
Where [21] appears, read: mean of three, M. mycetomatis MM55, read-out: Percentage survival at 100um, 100 uM mean.
Setting [22] is: replicate 1, M. mycetomatis MM55, read-out: Percentage survival at 100um, 100 uM A (first replicate column).
Setting [23] is: replicate 2, M. mycetomatis MM55.
The mark [24] stands for this setting: replicate 3, M. mycetomatis MM55, read-out: Percentage survival at 100um, 100 uM A (third replicate column).
Setting [25] is: mean of replicates, read-out: Percentage survival at 25um, 25 uM mean.
[26] abbreviates: mean of replicates, read-out: Percentage survival at 100um, 100 uM mean.
[27] abbreviates: replicate 1, read-out: Percentage survival at 100um, 100 uM A.
Where [28] appears, read: replicate 2, read-out: Percentage survival at 100um, 100 uM A.
[29] abbreviates: replicate 3, read-out: Percentage survival at 100um, 100 uM A.
The mark [30] stands for this setting: mean, read-out: Percentage survival at 25um, 25 uM mean.
Setting [31] is: mean, read-out: Percentage survival at 100um, 100 uM mean.
[32] abbreviates: replicate (first column), read-out: Percentage survival at 100um, 100 uM A.
The mark [33] stands for this setting: replicate (second column), read-out: Percentage survival at 100um, 100 uM A.
The mark [34] stands for this setting: replicate (third column), read-out: Percentage survival at 100um, 100 uM A.

Structures are written as SMILES. Read-outs that look alike come from different tables or passages of the source.

In the case of `CN(C)CC(=O)Nc1ccc2[nH]c(=O)c3ccccc3c2c1` [MMV1580480], the activity at 25 µM was 94.3% under setting [1], 106% under setting [2], 107% under setting [3] and 70.4% under setting [4]. The activity at 100 µM under setting [5] was 76.4%, the activity at 100 µM under setting [6] was 87.1%, the activity at 100 µM under setting [7] is 63.4% and the activity at 100 µM under setting [8] turned out to be 78.7%.
Turning to `COc1ccc(COc2cc3oc(=O)c4cc(C(C)O)ccc4c3cc2OC)cc1` (centres unmarked) [MMV1580799], the activity at 25 µM is, setting by setting: under setting [9], 95.8%; under setting [10], 100%; under setting [11], 103%; under setting [12], 84.1%. Besides, the activity at 100 µM was found to be 90.3% under setting [13], 91.5% under setting [14], 87.1% under setting [15] and 97% under setting [16].
On to `COc1ccc(OCc2ccc(COc3c(Cl)cccc3Cl)cc2)c(Cl)c1` [MMV1580485], for which the activity at 25 µM amounted to 89.3% under setting [1], 92.6% under setting [2], 89.4% under setting [3] and 85.7% under setting [4]. The activity at 100 µM stood at 77.9% under setting [5], 89.9% under setting [6], 70.7% under setting [7] and 73.2% under setting [8].
`O=C(Nc1ccccc1C(=O)O)c1cccc(Oc2ccccc2)c1` [MMV1579784]: the activity at 25 µM under setting [17] amounted to 90.7%, the activity at 25 µM under setting [18] was 75.3%, the activity at 25 µM under setting [19] came out at 85.5% and the activity at 25 µM under setting [20] was 111%. Besides, the activity at 100 µM runs as follows: under setting [21], 90.8%; under setting [22], 88.1%; under setting [24], 72.2%. In addition, under setting [23], the Percent fungal survival at 100 µM stood at 112%.
In the case of `O=c1cc(OCc2ccccc2)ccn1Cc1ccccc1` [MMV1579775], the activity at 25 µM by setting is: under setting [17], 71.3%; under setting [18], 65.3%; under setting [19], 61.6%; under setting [20], 87.1%. Also, the activity at 100 µM under setting [21] turned out to be 63.4%, the activity at 100 µM under setting [22] stood at 61.9% and the activity at 100 µM under setting [24] was determined as 55.4%. In addition, under setting [23], the Percent fungal survival at 100 µM is 72.8%.
Turning to `Cn1cncc1[C@@](N)(c1ccc(Cl)cc1)c1ccc2c(c1)c(-c1cccc(Cl)c1)cc(=O)n2C` [MMV658803], the activity at 25 µM runs as follows: under setting [1], 43.8%; under setting [2], 0.79%; under setting [3], 64.2%; under setting [4], 66.2%. The activity at 100 µM came to 36.3% under setting [5], 13.3% under setting [6], 45% under setting [7] and 50.7% under setting [8].
In the case of `O=C(N[C@H](CCS)C(=O)N[C@H](Cc1ccccc1)C(=O)O)c1cc2ccccc2[nH]1` [MMV1581557], the activity at 25 µM under setting [25] turned out to be 85.4%, the activity at 25 µM under setting [10] was 88.1%, the activity at 25 µM under setting [11] is 98.1% and the activity at 25 µM under setting [12] worked out at 70%. Besides, the activity at 100 µM is 83.1% under setting [26], 82.1% under setting [27], 85.3% under setting [28] and 81.8% under setting [29].
With `COc1c(F)c(F)cc2c(=O)c(C(=O)O)cn(C3CC3)c12` [MMV1480967], the activity at 25 µM by setting is: under setting [25], 104%; under setting [10], 87.1%; under setting [11], 91%; under setting [12], 135%. For the same molecule, the activity at 100 µM under setting [26] was determined as 77.9%, the activity at 100 µM under setting [27] worked out at 85.8%, the activity at 100 µM under setting [28] worked out at 67.1% and the activity at 100 µM under setting [29] worked out at 80.8%.
Take `Fc1ccc2c(/C=C/c3cccnc3)c[nH]c2c1` [MMV1578889]: the activity at 25 µM by setting is: under setting [30], 76.9%; under setting [10], 86.3%; under setting [11], 56.6%; under setting [12], 87.7%. In addition, the activity at 100 µM came to 58.2% under setting [31], 83.4% under setting [32], 19.8% under setting [33] and 71.5% under setting [34].
On to `CO[C@@]1(NC(=O)Cc2cccs2)C(=O)N2C(C(=O)O)=C(COC(N)=O)CS[C@@H]21` [MMV1578559], for which the activity at 25 µM stood at 84.2% under setting [17], 91.6% under setting [18], 86.2% under setting [19] and 74.6% under setting [20]. The activity at 100 µM under setting [21] worked out at 90.3%, the activity at 100 µM under setting [22] amounted to 87.3% and the activity at 100 µM under setting [24] is 85.1%. Under setting [23], the Percent fungal survival at 100 µM worked out at 98.4%.
On to `O=c1nc(N2CCN(CC3CCCCC3)CC2)sc2c([N+](=O)[O-])cc(C(F)(F)F)cc12` [MMV1578885], for which the activity at 25 µM is, setting by setting: under setting [9], 90.5%; under setting [10], 84.1%; under setting [11], 98%; under setting [12], 89.5%. The activity at 100 µM reads like this: under setting [14], 82.7%; (replicate 1, read-out: Percentage survival at 100um, 100 uM A (first replicate column)) 87.8%; (replicate 3, read-out: Percentage survival at 100um, 100 uM A (third replicate column)) 84.8%. Also, the Percent fungal survival at 100 µM (replicate 2) came to 75.6%.
`O=C(NCCN1CCCCC1)c1cccc(C(F)(F)F)c1` [MMV1633964]: the activity at 25 µM came out at 86.8% under setting [9], 87.8% under setting [10], 90.2% under setting [11] and 82.3% under setting [12]. The activity at 100 µM came to 77.6% under setting [13], 81.1% under setting [14], 90.5% under setting [15] and 75.1% under setting [16].
With `NC(=O)[C@@H]1CC[C@@H]2CN1C(=O)N2OS(=O)(=O)O` [MMV1613560], the activity at 25 µM reads like this: under setting [17], 88.8%; under setting [18], 94.4%; under setting [19], 88.3%; under setting [20], 83.7%. Further, the activity at 100 µM is 85.1% under setting [21], 93.4% under setting [22] and 94.1% under setting [24]. Also, under setting [23], the Percent fungal survival at 100 µM stood at 67.9%.
Turning to `CC(=O)NC[C@H]1CN(c2ccc(N3CCSCC3)c(F)c2)C(=O)O1` [MMV688756], the activity at 25 µM is 96.1% under setting [25], 94.4% under setting [10], 99.9% under setting [11] and 94.2% under setting [12]. Further, the activity at 100 µM under setting [26] stood at 92.4%, the activity at 100 µM under setting [27] came out at 100%, the activity at 100 µM under setting [28] stood at 85.2% and the activity at 100 µM under setting [29] was found to be 91.6%.
For the molecule `Cc1cc(C)n(O)c(=O)c1` [MMV1782389], the activity at 25 µM by setting is: under setting [30], 81.5%; under setting [10], 87.4%; under setting [11], 82.9%; under setting [12], 74.1%. Further, the activity at 100 µM reads like this: under setting [31], 81.6%; under setting [32], 67.6%; under setting [33], 78.2%; under setting [34], 99.1%.
For `COC1CC2CCC(C)C(O)(O2)C(=O)C(=O)N2CCCCC2C(=O)OC(C(C)CC2CCC(OCCO)C(OC)C2)CC(=O)C(C)/C=C(\C)C(O)C(OC)C(=O)C(C)CC(C)/C=C/C=C/C=C/1C` (centres unmarked) [MMV639951], the activity at 25 µM under setting [9] was 61.4%, the activity at 25 µM under setting [10] was determined as 64.2%, the activity at 25 µM under setting [11] amounted to 62.2% and the activity at 25 µM under setting [12] turned out to be 57.7%. Also, the activity at 100 µM came out at 69.2% under setting [13], 51.7% under setting [14], 46.7% under setting [15] and 39.4% under setting [16].
